Source: patent US9597312B2, “Treatment of cognitive disorders associated with abnormal dendritic spines using PKC activators” (Cognitive Research Enterprises, Inc., priority 2010, dated 2017)

Columns and labels:
PKC [1] = conditions: cited from earlier work
FMR1 mice = assay: Spatial water maze in Fragile X (FMR1) mice; assay type: in vivo; conditions: 20 μg/m^2 tail i.v., 2 doses/week for 13 weeks, vs FMR1 with vehicle p<0.001
Excerpt: Two types of mice (male, The Jackson Laboratories, ME, USA; 9-10 per group) were used in the study: FVB.129P2-Fmrl^tmlCgr/J (FMR1) and FVB.129P2-Pde6b^+ Tyr^c-ch/AntJ (as the control groups).
(§1) Non-treated groups received the same volume of vehicle at the same frequency of administration as the treated groups.
The first training of spatial water maze task began on the 10th day after the last dose. Mice were trained for 8 days (2 trials/day) to find a hidden platform, centered in one of the quadrants and submerged about 2 cm below the water surface. At the start of all trials, mice were placed individually in the water facing the maze wall, using different starting positions each trial, and allowed to swim until they found the platform, where they remained for 20 s, before being returned to their home cages. […] The swim path was recorded with a video-tracking system, which computed latency to the platform, swim distance, and percentage of time spent in the quadrants. After the training trials, a probe trial (a quadrant test or retention trial) was performed with the platform removed to assess memory retention for its location by the distance the mouse moved in the quadrants. The video-tracking system tracked the animal's movements in each quadrant during a period of one minute. […]

synaptophysin = assay: Synaptophysin immunohistochemistry in hippocampus of aged rats; assay type: in vivo
Description: Under anesthesia (choral hydrate; Sigma-Aldrich; 400 mg/kg body weight, i.p.), rats were perfused through the heart with PBS by gravity to wash out the blood and then lightly fixed with 150 ml of 4% paraformaldehyde in PBS at room temperature, instead of a cold fixative, because hypothermia can reduce the number of dendritic spines. Brains were removed and postfixed for 10 min. Thereafter, hippocampi were isolated from the right brain hemispheres, and dorsal hippocampi were sectioned with a vibratome at 400 μm for DiI staining and immunohistochemistry.
Hippocampal slices at 400 μm thickness were further immersed in the fixative (4% paraformaldehyde in PBS) for 30 min at room temperature and then sectioned at 35 μm thickness by using a vibratome. Sections were then processed for immunohistochemistry as described in Hongpaisan et al., J Neurosci., 2004, 24:10878-10887. […]
All data were quantified by using the ImageJ program. The appearance of spinophilin and synaptophysin profiles in a 63-μm×63-μm image taken from the superficial part of the stratum radiatum were analyzed with the photographic negative after background subtraction. The total number of spinophilin and synaptophysin granules were then counted by using ImageJ. […] HuC/D immunostaining was quantified by measuring fluorescence intensity in the proximal dendrite portion of each individual CA1 pyramidal neuron. […]

hippocampal CA1 area = assay: Immunohistochemistry of synaptic markers (GAP-43, neurogranin, synaptophysin) in hippocampal CA1 area of Fragile X mice; assay type: in vivo
Description: as §1
Hippocampal slices at 400 μm thickness were further immersed in the fixative (4% paraformaldehyde in PBS) for 30 min at room temperature and then sectioned at 35 μm thickness by using a vibratome. Sections were then processed for immunohistochemistry as described in Hongpaisan et al., J Neurosci., 2004, 24:10878-10887. Tissue sections were incubated free-floating with primary antibodies against spinophilin (polyclonal IgG; 1:100; Upstate/Millipore), synaptophysin (monoclonal IgG; 1:2,000; Chemicon/Millipore), and/or HuC/D (monoclonal IgG; 1:100; Molecular Probes) at room temperature overnight. For a polyclonal antibody, tissue sections were incubated with Alexa Fluor 568 goat anti-rabbit IgG (1:200; Molecular Probes) for 3 h at room temperature. For monoclonal antibodies, sections were treated with a biotinylated secondary antibody (1:20; Vector Laboratories) for 3 h at room temperature and then with streptavidin conjugated with Alexa Fluor 488 (1:100; Molecular Probes) for 3 h at room temperature. Sections were mounted with […] mounting medium with DAPI to counterstain nuclei (Vector Laboratories) and imaged with the confocal microscope (512 pixels×512 pixels).
All data were quantified by using the ImageJ program. The appearance of spinophilin and synaptophysin profiles in a 63-μm×63-μm image taken from the superficial part of the stratum radiatum were analyzed with the photographic negative after background subtraction. The total number of spinophilin and synaptophysin granules were then counted by using ImageJ. Synaptophysin intensity was defined in the whole area of a 63-μm×63-μm image. HuC/D immunostaining was quantified by measuring fluorescence intensity in the proximal dendrite portion of each individual CA1 pyramidal neuron. The naive control data were set at 100%, and all other experiment data were defined as the percentage of their control.
(§2) The mice were then sacrificed and hippocampal sections were removed and treated as described in Example 2.

hippocampal CA1 neurons = assay: DiI staining and confocal microscopy of dendritic spines of hippocampal CA1 neurons in Fragile X mice; assay type: in vivo; conditions: Fragile X transgenic mice
Description: as §1
The tips of glass electrodes, prepared as used for electrophysiology, were immersed in 5% (wt/vol) 1, 1′-dioctadecyl-3,3,3′,3′-tetramathyl-indocarbocyanineperchlorate (DiI, Molecular Probes/Invitrogen) in dichloromethane (Sigma-Aldrich) and air-dried at room temperature for 30 min. The tips of DiI-coated electrodes were inserted, broken, and left in the strata oriens of the CA1 area of hippocampal sections at […] thickness. After maintenance in PBS at 4° C. overnight to allow DiI to diffuse in the plasma membrane of the CA1 neurons, hippocampal sections were then resectioned to 35 μm thickness and mounted on glass slides, using PBS as the mounting medium. Dendritic spines stained with DiI in the strata radiatum were collected using a Zeiss Axiovert 200M microscope equipped with 510 confocal scanning system at 568 nm/>510 nm (excitation/emission). A stack of confocal images (taken every 0.4 μm) was collected to obtain all dendritic spines of an individual dendritic shaft. During analysis, a stack of images was retrieved with the ImageJ program (National Institutes of Health). Individual spines identified on one image were also verified on adjacent stacked images to approximate the three-dimensional structure of this spine. Those spines, which had head diameters more than three times larger than the diameter of their necks (FIGS. 1 d and e), were identified as mushroom spines. Approximately four to six stacked image sets were obtained from each animal. All image sets were pooled and coded; therefore, images were identified with unknown animal number and unknown treatment (double-blind protocol).
as §2

[2] = test system: mushroom-shaped dendritic spines; conditions: rats; cited from earlier work
[3] = test system: ischemia-induced deficits; conditions: postischemic/hypoxic treatment; cited from earlier work
Aβ(1-42) = conditions: transgenic mice with human AD genes; cited from earlier work
PKCε = biological target: T1, PKCε (Homo sapiens, UniProt Q02156); conditions: cited from earlier work
T1 sequence (Q02156 1-737): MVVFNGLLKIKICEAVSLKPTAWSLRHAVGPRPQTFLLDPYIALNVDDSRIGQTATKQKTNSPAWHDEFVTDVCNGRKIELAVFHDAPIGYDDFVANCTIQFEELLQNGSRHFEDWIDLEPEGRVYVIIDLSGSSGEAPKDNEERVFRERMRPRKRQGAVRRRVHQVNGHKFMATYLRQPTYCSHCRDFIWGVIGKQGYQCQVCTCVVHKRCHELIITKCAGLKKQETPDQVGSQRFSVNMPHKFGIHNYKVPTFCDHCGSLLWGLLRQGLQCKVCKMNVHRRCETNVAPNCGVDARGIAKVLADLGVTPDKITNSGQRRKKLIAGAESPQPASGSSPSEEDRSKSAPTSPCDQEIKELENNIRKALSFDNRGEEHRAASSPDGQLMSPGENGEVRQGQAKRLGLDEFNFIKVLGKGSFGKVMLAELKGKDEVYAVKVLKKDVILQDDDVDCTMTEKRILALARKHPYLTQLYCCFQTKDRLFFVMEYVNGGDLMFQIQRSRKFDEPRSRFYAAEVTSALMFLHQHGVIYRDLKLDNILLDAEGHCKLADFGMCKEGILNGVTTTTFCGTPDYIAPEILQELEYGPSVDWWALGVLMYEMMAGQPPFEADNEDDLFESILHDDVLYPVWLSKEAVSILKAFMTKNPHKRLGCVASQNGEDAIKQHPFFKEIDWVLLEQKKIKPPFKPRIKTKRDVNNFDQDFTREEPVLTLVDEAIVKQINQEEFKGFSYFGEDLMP

[4] = test system: murine leukemias and solid tumors; conditions: cited from earlier work
[5] = test system: cyclin dependent kinase 2 (Cdk2); conditions: at 5 ng/ml; cited from earlier work
PKC [6] = conditions: K562 cells; cited from earlier work
[7] = test system: squamous cell carcinoma and melanoma; conditions: used topically; cited from earlier work
NCI 60 cell line screen = conditions: cited from earlier work
protein kinase C = conditions: specifically the (−)-enantiomer; read-out: EC50 (potency); cited from earlier work

For CCCCCCCC(=O)O[C@H]1/C(=C/C(=O)OC)C[C@H]2C[C@H](CO)OC(=O)C[C@H](O)C[C@@H]3CCC[C@H](C[C@@H]4CCO[C@H](/C=C/C(C)(C)[C@]1(O)O2)O4)O3 [Analog 1], which “affinity for PKC (in words)” value (PKC [1]) is on record?
Its value is “high affinity for PKC”.

With CCC/C=C/C=C/C(=O)O[C@H]1/C(=C/C(=O)OC)C[C@H]2C[C@H]([C@@H](C)O)OC(=O)C[C@H](O)C[C@@H]3C[C@H](OC(C)=O)C(C)(C)[C@](O)(C[C@@H]4C/C(=C/C(=O)OC)C[C@H](/C=C/C(C)(C)[C@]1(O)O2)O4)O3 [Bryostatin 1, bryostatin-1] as the molecule, how does the “learning performance in water maze (FIG. 1)” value (FMR1 mice) read?
Its value is “significantly improved the learning performance”.

And the “presence of synaptophysin (FIG. 3)” value (synaptophysin)?
Its value is “increased”.

What about the “postsynaptic membrane density, neurogranin; number of synapses (FIG. 8)” value (hippocampal CA1 area; Fragile X transgenic mice) of the same molecule?
The value was “can be restored”.

What about the “presynaptic membrane density, GAP-43 (FIG. 7)” value (hippocampal CA1 area; Fragile X transgenic mice) of the same molecule?
The value was “restored presynaptic membrane density in Fragile X transgenic mice to wild type levels”.

And the “presynaptic vesicle concentration, synaptophysin fluorescence intensity (FIG. 9)” value (hippocampal CA1 area; Fragile X transgenic mice)?
The value was “significantly restored, and even enhanced”.

What about the “number of presynaptic axonal boutons, synaptophysin grains (FIG. 9)” value (hippocampal CA1 area; across experimental conditions) of the same molecule?
The value was “No difference”.

And the “filopodia number per 100 μm of dendritic shaft (FIG. 6)” value (hippocampal CA1 neurons)?
Its value is “improved the transformation of filopodia to dendritic spines”.

What about the “mushroom-shaped and total dendritic spines per 100 μm of dendritic shaft (FIG. 5)” value (hippocampal CA1 neurons) of the same molecule?
The value was “prevented the loss”.

And the “number and density of dendritic mushroom spines (FIG. 4)” value (hippocampal CA1 neurons)?
Its value is “restored the number and density of dendritic mushroom spines to wild-type levels”.

And the “number of mushroom-shaped dendritic spines” value [2]?
Its value is “memory-specific increase”.

What about the “ischemia-induced deficits in synaptogenesis, neurotrophic activity, and spatial learning and memory” value [3] of the same molecule?
Its value is “effectively rescued”.

What about the “Aβ(1-42) levels in the brains” value (Aβ(1-42)) of the same molecule?
Its value is “reduce”.

Which “concentration of maximal effect on PKCε activation” value (PKCε) does the source give for CCCCCC1CC1CC1CC1CCCCCCCC(=O)O (centres unmarked) [DCP-LA, 2-[(2-pentylcyclopropyl)methyl]cyclopropaneoctanoic acid] here?
The value was 100 nM.

Which “concentrations of potent antitumor activity” value [4] does the source give for C=C(C)[C@]12C[C@@H](COC(=O)c3ccccc3)[C@@]34OC5(O[C@@H]1[C@@H]3C1O[C@]1(CO)[C@@H](O)[C@@]1(O)[C@H]4[C@@H](C(C)CCCCCC[C@@H]5O)C(C)[C@@H]1OC(=O)c1ccccc1)O2 (some centres unmarked) [Gnidimacrin] here?
The value was 0.1 to 1 nM.

And the “inhibition of Cdk2” value [5]?
The value was 100%.

What about the “concentration at which it acts as a PKC activator” value (PKC [6]) of the same molecule?
Its value is ~3 nM.

With C/C=C(/C)C(=O)O[C@H]1C(C)=C[C@]23C(=O)[C@@H](C=C(CO)[C@@H](O)[C@]12O)[C@H]1[C@@H](C[C@H]3C)C1(C)C [Ingenol-3-angelate] as the molecule, how does the antitumor activity [7] read?
Its antitumor activity is “possesses antitumor activity”.

Which “GI50 (concentration required to inhibit growth by 50%)” value (NCI 60 cell line screen) does the source give for CC1=CC[C@H](C)C(C)(C)[C@@H]1/C=C/C(C)=C/CC[C@@]1(CO)[C@H](CCCO)/C(=C(/C)C=O)CC[C@]1(C)O [Iripallidal] here?
Its value is “micromolar to nanomolar range”.

For CCCCCCCCc1ccc2c3c(c[nH]c13)C[C@@H](CO)NC(=O)[C@H](C(C)C)N2C [octylindolactam V, Octylindolactam V], which EC50 (protein kinase C) is on record?
Its EC50 is 0.029 µM.
